Test in all cases: Dundee kinase panel
Holding throughout (assay type): biochemical
Holding throughout (settings): for remaining activity at 1 µM: read-out: residual activity

The target of experiment [1] is T1, VEGFR (Homo sapiens, UniProt P17948).
T1 construct: lines 1-140) and Reaction Biology
T1 sequence (P17948 784-1338 limits assumed): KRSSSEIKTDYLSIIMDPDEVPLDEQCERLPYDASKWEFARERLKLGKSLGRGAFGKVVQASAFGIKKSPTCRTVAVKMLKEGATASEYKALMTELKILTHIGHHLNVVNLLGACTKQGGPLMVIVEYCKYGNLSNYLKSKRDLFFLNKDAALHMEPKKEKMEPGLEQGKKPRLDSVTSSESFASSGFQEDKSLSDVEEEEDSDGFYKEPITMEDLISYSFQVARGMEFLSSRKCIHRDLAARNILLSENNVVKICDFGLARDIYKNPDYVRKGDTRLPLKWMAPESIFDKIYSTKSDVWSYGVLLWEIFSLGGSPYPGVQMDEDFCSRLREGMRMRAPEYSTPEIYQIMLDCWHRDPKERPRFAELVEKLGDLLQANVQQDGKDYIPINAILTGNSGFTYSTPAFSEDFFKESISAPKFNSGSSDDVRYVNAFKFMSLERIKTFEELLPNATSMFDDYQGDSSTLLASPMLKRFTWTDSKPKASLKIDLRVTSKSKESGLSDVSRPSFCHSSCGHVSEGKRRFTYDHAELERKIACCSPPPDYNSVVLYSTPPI
How it is done:
(§1) Compounds were screened at 1 μM. For key hits, pIC50 values were then determined by HTRF as above. […] Stability in mouse and human liver microsomes was determined by Cyprotex.

Experiment [2] deals with T2, Aurora A (Homo sapiens, UniProt O14965).
T2 construct: lines 1-140) and Reaction Biology
T2 sequence (O14965 1-403): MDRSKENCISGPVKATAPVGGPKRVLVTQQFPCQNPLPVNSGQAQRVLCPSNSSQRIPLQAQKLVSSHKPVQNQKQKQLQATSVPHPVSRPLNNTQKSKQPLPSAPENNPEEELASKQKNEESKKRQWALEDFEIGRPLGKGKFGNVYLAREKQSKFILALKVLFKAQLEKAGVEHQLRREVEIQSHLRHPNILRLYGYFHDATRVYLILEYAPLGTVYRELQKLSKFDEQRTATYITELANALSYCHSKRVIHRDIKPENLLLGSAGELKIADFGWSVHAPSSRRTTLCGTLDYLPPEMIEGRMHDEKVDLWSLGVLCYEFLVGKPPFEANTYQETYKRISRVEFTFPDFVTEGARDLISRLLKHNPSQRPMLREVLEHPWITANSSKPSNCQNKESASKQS
The procedure: as §1

In experiment [3] the target is T3, PKCγ (Homo sapiens, UniProt P05129).
T3 construct: lines 1-140) and Reaction Biology
How it is done:
as §1

In experiment [4] the target is T4, p38a MAPK (Homo sapiens, UniProt Q16539).
T4 construct: lines 1-140) and Reaction Biology
How it is done:
as §1

The target of experiment [5] is T5, BRSK2 (Homo sapiens, UniProt Q8IWQ3).
T5 construct: lines 1-140) and Reaction Biology
T5 sequence (Q8IWQ3 1-736): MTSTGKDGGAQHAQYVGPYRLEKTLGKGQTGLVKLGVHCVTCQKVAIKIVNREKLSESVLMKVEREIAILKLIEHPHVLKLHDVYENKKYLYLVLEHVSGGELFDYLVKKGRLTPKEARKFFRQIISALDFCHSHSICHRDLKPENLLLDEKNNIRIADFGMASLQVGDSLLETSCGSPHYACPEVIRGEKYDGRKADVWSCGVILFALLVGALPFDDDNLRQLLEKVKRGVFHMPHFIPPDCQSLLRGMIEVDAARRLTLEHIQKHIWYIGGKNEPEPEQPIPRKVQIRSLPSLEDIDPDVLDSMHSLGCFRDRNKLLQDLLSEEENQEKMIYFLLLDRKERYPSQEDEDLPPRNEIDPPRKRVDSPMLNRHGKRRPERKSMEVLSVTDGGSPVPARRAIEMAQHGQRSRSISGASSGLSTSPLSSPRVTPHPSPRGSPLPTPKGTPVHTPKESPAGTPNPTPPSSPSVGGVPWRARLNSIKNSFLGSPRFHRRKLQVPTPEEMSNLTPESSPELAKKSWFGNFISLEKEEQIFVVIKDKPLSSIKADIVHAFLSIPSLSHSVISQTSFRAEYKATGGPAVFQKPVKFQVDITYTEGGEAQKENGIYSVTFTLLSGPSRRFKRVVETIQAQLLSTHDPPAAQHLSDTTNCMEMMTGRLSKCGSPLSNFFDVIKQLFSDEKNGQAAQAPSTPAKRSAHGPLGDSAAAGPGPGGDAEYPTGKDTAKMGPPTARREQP
The procedure: as §1

The target in experiment [6] is T6, PIM2 (Homo sapiens, UniProt Q9P1W9).
T6 construct: lines 1-140) and Reaction Biology
The procedure: as §1

Experiment [7] addresses T7, ABL (Homo sapiens, UniProt P00519).
T7 construct: lines 1-140) and Reaction Biology
The procedure:
as §1

Experiment [8] deals with T8, NUAK1 (Homo sapiens, UniProt O60285).
T8 construct: lines 1-140) and Reaction Biology
T8 sequence (O60285 1-661): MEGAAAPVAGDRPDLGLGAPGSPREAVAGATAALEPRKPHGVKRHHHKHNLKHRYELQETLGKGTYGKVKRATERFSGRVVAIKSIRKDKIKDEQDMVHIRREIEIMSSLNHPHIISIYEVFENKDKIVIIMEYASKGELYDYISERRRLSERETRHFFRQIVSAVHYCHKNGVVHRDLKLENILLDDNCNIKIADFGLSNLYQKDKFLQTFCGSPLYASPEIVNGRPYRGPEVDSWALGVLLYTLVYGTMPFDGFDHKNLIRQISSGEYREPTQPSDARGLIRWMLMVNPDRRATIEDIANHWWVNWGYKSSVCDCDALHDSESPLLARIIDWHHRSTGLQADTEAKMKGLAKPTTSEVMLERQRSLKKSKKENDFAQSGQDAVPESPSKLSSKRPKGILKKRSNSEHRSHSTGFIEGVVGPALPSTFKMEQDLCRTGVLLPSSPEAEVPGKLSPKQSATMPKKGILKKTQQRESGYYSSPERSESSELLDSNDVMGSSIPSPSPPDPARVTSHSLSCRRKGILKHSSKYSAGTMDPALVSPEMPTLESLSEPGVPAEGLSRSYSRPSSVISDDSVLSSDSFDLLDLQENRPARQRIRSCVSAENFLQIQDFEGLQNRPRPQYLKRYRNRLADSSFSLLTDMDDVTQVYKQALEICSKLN
How it is done:
as §1

The term residual activity denotes the share of the control activity or signal that is left under treatment.

T4 sequence (Q16539 whole entry): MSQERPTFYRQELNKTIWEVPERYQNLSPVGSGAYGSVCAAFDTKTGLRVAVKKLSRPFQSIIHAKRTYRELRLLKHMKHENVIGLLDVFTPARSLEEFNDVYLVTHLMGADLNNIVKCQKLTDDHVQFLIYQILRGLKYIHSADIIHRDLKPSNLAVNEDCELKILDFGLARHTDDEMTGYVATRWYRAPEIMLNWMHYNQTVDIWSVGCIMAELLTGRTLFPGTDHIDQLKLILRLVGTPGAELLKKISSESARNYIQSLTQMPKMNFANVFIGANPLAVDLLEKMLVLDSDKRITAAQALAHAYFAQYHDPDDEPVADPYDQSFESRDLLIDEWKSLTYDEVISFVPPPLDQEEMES
T6 sequence (Q9P1W9 whole entry): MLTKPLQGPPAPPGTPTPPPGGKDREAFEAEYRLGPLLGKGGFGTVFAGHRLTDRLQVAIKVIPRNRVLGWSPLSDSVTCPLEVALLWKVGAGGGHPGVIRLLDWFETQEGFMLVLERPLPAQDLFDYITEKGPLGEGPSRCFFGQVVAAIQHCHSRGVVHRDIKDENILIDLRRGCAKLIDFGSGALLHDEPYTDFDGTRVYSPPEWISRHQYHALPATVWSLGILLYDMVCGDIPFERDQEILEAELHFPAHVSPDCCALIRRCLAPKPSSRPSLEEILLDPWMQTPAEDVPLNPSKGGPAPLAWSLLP
T7 sequence (P00519 whole entry): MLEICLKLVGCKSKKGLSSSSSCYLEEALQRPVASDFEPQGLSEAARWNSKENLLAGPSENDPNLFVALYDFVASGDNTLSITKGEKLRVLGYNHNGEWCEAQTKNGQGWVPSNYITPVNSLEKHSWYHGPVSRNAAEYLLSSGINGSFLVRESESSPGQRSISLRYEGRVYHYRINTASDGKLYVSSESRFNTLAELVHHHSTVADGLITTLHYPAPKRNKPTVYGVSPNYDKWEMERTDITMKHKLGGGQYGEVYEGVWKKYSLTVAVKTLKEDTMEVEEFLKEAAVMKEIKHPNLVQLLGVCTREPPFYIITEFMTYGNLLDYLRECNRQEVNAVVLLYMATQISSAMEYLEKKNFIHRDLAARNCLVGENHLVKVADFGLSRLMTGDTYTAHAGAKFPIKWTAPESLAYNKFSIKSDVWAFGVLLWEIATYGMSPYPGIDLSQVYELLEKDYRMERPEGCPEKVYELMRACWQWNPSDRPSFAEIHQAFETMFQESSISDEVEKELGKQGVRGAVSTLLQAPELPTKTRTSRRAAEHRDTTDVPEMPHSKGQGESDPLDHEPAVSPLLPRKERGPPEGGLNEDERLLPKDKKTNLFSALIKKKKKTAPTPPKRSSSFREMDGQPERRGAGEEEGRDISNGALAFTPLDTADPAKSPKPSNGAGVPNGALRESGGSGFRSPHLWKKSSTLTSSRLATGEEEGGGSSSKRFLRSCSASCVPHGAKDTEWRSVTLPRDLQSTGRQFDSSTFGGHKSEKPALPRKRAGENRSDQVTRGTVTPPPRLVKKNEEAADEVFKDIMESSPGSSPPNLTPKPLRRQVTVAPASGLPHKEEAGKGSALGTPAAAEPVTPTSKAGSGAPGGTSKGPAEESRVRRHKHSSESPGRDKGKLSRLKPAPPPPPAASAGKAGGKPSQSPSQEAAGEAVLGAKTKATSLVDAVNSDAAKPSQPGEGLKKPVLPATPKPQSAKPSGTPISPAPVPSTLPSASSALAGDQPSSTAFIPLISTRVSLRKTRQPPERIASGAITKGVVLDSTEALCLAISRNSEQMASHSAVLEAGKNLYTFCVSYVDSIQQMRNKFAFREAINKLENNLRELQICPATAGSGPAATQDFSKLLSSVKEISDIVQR

For `COCCOc1ccc(-c2cn(-c3ccccc3)c3nc[nH]c(=O)c23)cc1` [DMX-5804, 5-[4-(2-methoxy-ethoxy)-phenyl]-7-phenyl-3,7-dihydro-pyrrolo[2,3-d]pyrimidin-4-one], the remaining activity at 1 µM in experiment [1] came to 27%; in experiment [2] it was 72%; in experiment [3] it was 94%; in experiment [4], 96%; in experiment [5], 92%; in experiment [6] it was 105%. Also, the remaining activity at 1 µM in experiment [7] is 79%; in experiment [8] it was 14%.

As to `Oc1ncnc2c1c(-c1ccccc1)cn2-c1ccccc1` [F1386-0303, 5,7-diphenyl-7H-pyrrolo[2,3-d]pyrimidin-4-ol], the remaining activity at 1 µM in experiment [1] came to 73%; in experiment [2], 111%; in experiment [3], 105%; in experiment [4], 78%; in experiment [5] it was 91%; in experiment [6], 84%. Further, the remaining activity at 1 µM in experiment [7] stood at 94%; in experiment [8] it was 48%.

For the compound `Nc1ncc(C(=O)NC2CN(C(=O)C3CC3)C2)c2ccc(-c3cccc(F)c3)nc12` [GNE-495], the residual activity in experiment [1] (1 μM) stood at 92%; in experiment [2] (1 μM), 73%; in experiment [3] (1 μM), 74%; in experiment [4] (1 μM) it was 95%; in experiment [5] (1 μM), 77%; in experiment [6] (1 μM), 95%. Also, the residual activity in experiment [7] (1 μM) was found to be 68%; in experiment [8] (1 μM), 49%.

As for `O=C1Nc2ccc(I)cc2/C1=C/c1cc(Br)c(O)c(Br)c1` [GW5074], the remaining activity at 1 µM in experiment [1] was found to be 29%; in experiment [2], 79%; in experiment [3], 100%; in experiment [4], 49%; in experiment [5], 75%; in experiment [6], 10%. Further, the values for the remaining activity at 1 µM in experiment [7] and in experiment [8] were 58% and 63%, respectively.

In the case of `O=C1Cc2c([nH]c3ccc(Br)cc23)-c2ccccc2N1` [Kenpaullone], the remaining activity at 1 µM in experiment [1] came to 30%; in experiment [2] it was 96%; in experiment [3] it was 105%; in experiment [4] it was 94%; in experiment [5], 35%; in experiment [6], 67%. Further, the values for the remaining activity at 1 µM in experiment [7] and in experiment [8] were 40% and 79%, respectively.

For the origin of these results see PMC6458995, “MAP4K4 Inhibition Promotes Survival of Human Stem Cell-Derived Cardiomyocytes and Reduces Infarct Size In Vivo” (Cell Stem Cell, 2019).
